In data set [1] the test system is wild-type MX/09 influenza. In kind it is cell-based. As to conditions: oseltamivir 75 mg Q12 and/or zanamivir 600 mg Q12 exposures, alone or in combination, throughout the study.
The conditions of data set [2]: cited from earlier work; for human half-life: reported human half-life simulated in the HFIM.

Like-named read-outs stand apart in the source and are kept apart here.

Turning to Oseltamivir carboxylate, the “effect on viral replication relative to no-treatment control” value in data set [1] is “suppressed the replication of MX/09”. In addition, in data set [2] (ref Doucette and Aoki, 2001), the human half-life is 8 h.
In the case of `CC(=O)N[C@H]1[C@H]([C@H](O)[C@H](O)CO)OC(C(=O)O)=C[C@@H]1N=C(N)N` [Zanamivir, zanamivir], in data set [2] (ref GlaxoSmithKline, 2009), the oral bioavailability result is reported as “poor oral bioavailability” and the human half-life is reported as 2.5 h.

The values above are taken from publication PMC5694373 (European journal of pharmaceutical sciences : official …, 2017).
